# “And” between values parts separate entries of the source, which are not always exact repeats. Identical values can stand only once.
# Columns and labels:
# [1] = test system: intracellular L. donovani; experiment: Intracellular L. donovani in THP-1 cells, dose-dilution high-content imaging assay; format: cell-based; settings: for EC50: Leishmania donovani, THP-1 cells infected with L. donovani, 72 h, duplicate measurements, read-out: Intracellular L. donovani EC50 ± SD; for Selectivity Index (SI): SI = THP-1 CC50/Intracellular L. donovani EC50
# Method: (§1) PMA-treated THP-1 human monocytic cells were seeded at 0.8 × 10^4 cells per well in a 384-well culture plate (Greiner Bio-One, Kremsmünster, Austria) in RPMI-1640 complete medium supplemented with 10% FBS. After 48 h of incubation at 37 °C in the presence of 5% CO2, the promastigotes of L. donovani that were incubated with lectin for 30 min at 28 °C were added to the cells at a parasite to cell ratio of 20:1. […] The negative control consisted of THP-1 infected with the parasite with only 0.5% DMSO. After 72 h, the cells that were infected and treated with the drug were washed with serum-free RPMI-1640 medium. The cells and parasites were stained using 5 μM DRAQ5 and 4% PFA. The images were acquired based on reading using an Operetta® automated microscope (PerkinElmer, Inc., Waltham, MA 02451 USA). They were further analyzed using Columbus^TM (PerkinElmer, Inc. Waltham, MA, USA) software to quantify parasite numbers, host cell numbers, and infection ratios. In brief, large-sized nucleus of host cells was first detected using Draq-5 (Thermo Fisher, Rockford, IL, USA) signal and the host cell boundary masking was performed using the low-intensity signals from cytosols (additional feature of Draq-5). Then the small-sized nucleus signal by Draq-5 was used to identify parasites within the area of masked host cell. Infection ratio (IR) was determined with the value of the number of infected cells divided by total number of cells and the average number of parasites per macrophage (P/φ) was defined by the value of the number of parasites divided by the number of infected cells in the acquired image.
# (§2) All of the half maximal effective concentrations (EC50) and the half maximal cytotoxic concentrations (CC50) values were calculated using two independent experiments. The dose-response curves were fitted using GraphPad Prism 6 software (GraphPad Software, San Diego, CA, USA) by using a sigmoidal dose-response equation with a variable hill slope option.
# [2] = Host cell cytotoxicity (CC50) in infected THP-1 cells, dose-dilution assay; format: cell-based; settings: human, infected THP-1 host cells, read-out: THP-1 Cell CC50 ± SD
# Method: as §1, §2
# [3] = test system: L. donovani promastigotes; experiment: L. donovani promastigote growth inhibition (resazurin); format: cell-based; settings: Leishmania donovani, 72 h, 3 days exposure, read-out: L. donovani Promastigote EC50 ± SD
# Method: (§3) L. donovani promastigote and T. b. brucei Lister 427 BSF growth inhibition were assayed by measuring the conversion of resazurin to resorufin. The assays were performed in 384-well plates that were seeded with L. donovani promastigotes or T. brucei 427 BSF (5 × 10^4 cells per well). After seeding, the parasites were exposed to the compounds for 3 days. Resazurin sodium salt (200 μM; R7017; Sigma-Aldrich, St. Louis, MO, USA) was then added, and the samples were incubated for 5 h. After incubation, the parasites were fixed using 4% paraformaldehyde, and the plates were analyzed using a Victor3^TM plate reader (PerkinElmer, Inc., Waltham, MA, USA) at 590 nm (emission) and 530 nm (excitation). […] Pentamidine was used for the T. b. brucei Lister 427 BSF growth inhibition assay.
# as §2
# [4] = test system: T. b. brucei Lister 427 BSF; experiment: T. b. brucei Lister 427 bloodstream form growth inhibition (resazurin); format: cell-based; settings: Trypanosoma brucei, 72 h, 3 days exposure, read-out: T. brucei Lister 427 BSF EC50 ± SD
# Method: as §3, §2
# L. donovani = experiment: VL mouse model (L. donovani-infected BALB/c mice); format: in vivo; settings: miltefosine 30, Torin2 15, dactolisib 50, NVP-BGT226 5 mg/kg; for Inhibition of L. donovani In Vivo (%) (Mean ± SD): liver parasite burden vs vehicle, per os 5 days; for LDU in the Liver (Mean ± SD): once daily per os for 5 days from day 7 post-infection
# Method: The highest dose for each compound without showing adverse effects was selected based on literature search. The vehicle for the compounds was 5% N-methylpyrrolidone, 15% polyvinylpyrrolidone, and 80% deionized water. Drug dosing solutions were freshly prepared each day. All drugs were administered once daily for 5 days via the per os route. On day 16 post-infection, all animals were humanely euthanized and assessed microscopically using Giemsa-stained liver imprints. Parasite burdens were measured by counting (blinded to treatment) the number of amastigotes per 1000 cell nuclei and multiplying this number by the liver weight (mg) (Leishman-Donovan Unit: LDU). The LDU values for the drug-treated samples were compared to those of the untreated samples, and the percent inhibition values were calculated.
# [5] = test system: intracellular L. donovani; experiment: Pilot high-content screening against intracellular L. donovani at 10 μM; format: cell-based; settings: screening concentration 10 µM
# Method: as §1, with “image. The average IR value of the negative control wells was calculated as 0.53. Compounds selected based on the screening results were further assessed in a dose-dilution manner (two-fold serial dilution for 20 points starting from 100 μM) using the same method.” for “image.”
# THP-1 cells = experiment: Host cell viability in pilot screening at 10 μM; format: cell-based, human; settings: screening concentration 10 µM
# Method: as §1, with “[…] The average IR” for “Infection ratio (IR) was determined with the”, “negative control wells” for “number of infected cells divided by total number of cells and the average number of parasites per macrophage (P/φ)”, “calculated as 0.53. […]” for “defined by the value of the number of parasites divided by the number of infected cells in the acquired image.”
# T. b. brucei Lister 427 = experiment: HAT mouse model (acute T. b. brucei Lister 427 infection of BALB/c mice); format: in vivo; settings: for parasitemia in T. brucei-infected mice: five consecutive days of treatment, Torin2 15 mg/kg, NVP-BGT226 5 mg/kg
# Method: BALB/c mice were infected with T. b. brucei Lister 427 (4 × 10^4 cells) by intraperitoneal (i.p.) injection. […] Parasitemia was evaluated daily for 2 weeks by blood collection from the mouse tail vein, and survival was monitored for 1 month. Mice showing impaired health status and/or with a parasite load > 10^8 cells per mL of blood were euthanized.
# [6] = Pilot toxicity study in mice; format: in vivo; settings: 5 mg/kg dose
# Method: For this proof of concept in vivo study, L. donovani infected BALB/c model was used to evaluate the ability of compound to reduce parasites in liver. […] Using the same dosing scheme, the efficacies of the compounds were evaluated in VL mouse model.
smiles,measurement,setting,value
Cn1c(=O)n(-c2ccc(C(C)(C)C#N)cc2)c2c3cc(-c4cnc5ccccc5c4)ccc3ncc21 [Dactolisib (NVP-BEZ235)],EC50,[1],360 ± 70 nM
same,Selectivity Index (SI),[1],≥277.8
same,CC50 at 72 h,[2],> 100000 nM
same,EC50,[3],380 ± 60 nM
same,EC50,[4],120 ± 10 nM
same,Inhibition of L. donovani In Vivo (%) (Mean ± SD),L. donovani,53 ± 9.50%
same,Inhibition of L. donovani In Vivo (%) (Mean ± SD),L. donovani; listed as dactolisib,53%
same,LDU in the Liver (Mean ± SD),L. donovani,527 ± 108 LDU
same,inhibition of intracellular parasite survival in screening,[5],found active
COc1ncc(-c2ccc3nccc(-c4ccnnc4)c3c2)cc1NS(=O)(=O)c1ccc(F)cc1F [GSK2126458],inhibition of intracellular parasite survival in screening,[5],found active
same,toxicity against the host cell in screening,THP-1 cells,some toxicity against the host cell
COc1ccc(-c2ccc3ncc4c(c3c2)n(-c2ccc(N3CCNCC3)c(C(F)(F)F)c2)c(=O)n4C)cn1 [NVP-BGT226],EC50,[1],140 ± 20 nM
same,Selectivity Index (SI),[1],19
same,CC50 at 72 h,[2],2660 ± 460 nM
same,EC50,[3],9 ± 1 nM
same,EC50,[4],0.054 ± 0.003 nM
same,Inhibition of L. donovani In Vivo (%) (Mean ± SD),L. donovani; 5 mg/kg,54% and 54 ± 3.18%
same,LDU in the Liver (Mean ± SD),L. donovani,516 ± 36 LDU
same,mice surviving during 14 days post-infection,T. b. brucei Lister 427; 5 mg/kg per os for 5 days,80%
same,mice surviving more than 25 days without parasitemia,T. b. brucei Lister 427; 5 mg/kg per os for 5 days,20%
same,delay in survival over the Torin2-treated group,T. b. brucei Lister 427; NVP-BGT226 5 mg/kg vs Torin2 15 mg/kg,1 to 2 days
same,parasitemia in T. brucei-infected mice,T. b. brucei Lister 427,reduced to under the limits of detection
same,toxicity in vivo,[6],no sign of toxicity was observed
"Nc1ccc(-c2ccc3ncc4ccc(=O)n(-c5cccc(C(F)(F)F)c5)c4c3c2)cn1 [Torin2, 9-(6-Aminopyridin-3-yl)-1-(3-(trifluoromethyl)phenyl)benzo[h][1,6]naphthyridin-2(1H)-one]",EC50,[1],250 ± 30 nM
same,EC50,[3],30 ± 4 nM
same,EC50,[4],110 ± 10 nM
same,Inhibition of L. donovani In Vivo (%) (Mean ± SD),L. donovani,35% and 35 ± 5.81%
same,LDU in the Liver (Mean ± SD),L. donovani,735 ± 66 LDU
same,mice surviving at least 13 days after infection,T. b. brucei Lister 427; 15 mg/kg per os for 5 days,80%
same,parasitemia in T. brucei-infected mice,T. b. brucei Lister 427,parasitemia was observed still by day 5
